The source of these data is patent US9310353B2, “Method for evaluating bioavailable zinc” (The Procter & Gamble Company, priority 2014, dated 2016).

Data set [1] has as its system TR146 cells. The data set can be described thus: Flux of Zn salts in TR146 cells (FLIPR, FluoZin-3 AM). The data set is classed as cell-based. To be noted: for % of Zn Lactate Flux: Zn-lactate = 100%. How it is done: (§1) Measurement of Zn uptake into TR146 cells was done using a FLIPR (Fluorescent Imaging Plate Reader) assay. The assay was established using a cell membrane permeable version of Zn dye, FluoZin-3 AM (Life Technologies, Grand Island, N.Y.). TR146 cells were grown in 15 ml growth medium [high glucose DMEM (Dulbecco's Modification of Eagle's Medium) supplemented with 10% FBS (fetal bovine serum), 100 units/ml penicillin and 100 μg/ml streptomycin in a 75 cm^2 flask for 3 days at 37° C. in a mammalian cell culture incubator set at 5% CO2. Cells were detached with addition of 10 ml of PBS (phosphate buffered saline) and gentle hand shaking, and transferred to a 50 ml tube and centrifuged at 850 rpm for 3 minutes to remove PBS. After centrifugation, a pellet of cells was formed in the bottom of the tube separating them from the supernatant solution. The supernatant was discarded and the cell pellet suspended in 1 ml of fresh growth medium to which 5 μl (12.5 μg) of FluoZin-3 AM Zn indicator was added and incubated for 30 minutes with gentle shaking. FluoZin-3 AM is a fluorescent dye used for quantifying intracellular Zn concentrations in the 1 to 100 nM to range. At the end of the 30 minutes, 45 ml of assay buffer [1×HBSS (Hank's Balanced Salt Solution), 20 mM HEPES (4-(2-Hydroxyethyl)-1-piperazineethanesulfonic acid)] was added to wash the cells and the resulting combination was then centrifuged at 850 rpm for 3 minutes to remove excess buffer and FluoZin-3 AM Zn indicator. The pelleted cells were re-suspended in 10 ml assay buffer and 90 μl aliquots (˜50,000 cells) per well delivered to a 96-well assay plate and the plate is placed into a fluorometric imaging plate reader (FLIPR384 from Molecular Devices, Sunnyvale, Calif.) and basal fluorescence recorded (excitation wave length 494 nm and emission wave length 516 nm). Then Zn salt (for example Zn-lactate) was added and the increase in fluorescence was recorded for 5 minutes. Zn-flux observed with different Zn salts with Zn-lactate value as reference (100%) is shown below in TABLE 2.

For data set [2], the system named is TR146 cells. Put plainly: Chelant effects on Zn flux via TR146 measurements (FLIPR). Conditions: relative to the flux of the Zn lactate control; for 5 micro M Chelant Control / 50 micro M Chelant Control: chelant alone, no Zn. The data set is classed as cell-based.
Description: These combinations were then placed into growth media and measurement of Zn uptake into TR146 cells was done using a FLIPR (Fluorescent Imaging Plate Reader) assay, as described in EXAMPLE 2.
For data set [3], the system named is TR146 cells. Put plainly: Competitive inhibition of Zn flux from zinc chloride by amine polymers in TR146 cells. The data set is classed as cell-based. To be noted: ZnCl2 140 uM alone (reference). How it is done: (§2) Measurement of Zn uptake into TR146 cells was done using a FLIPR (Fluorescent Imaging Plate Reader) assay. The assay was established using a cell membrane permeable version of Zn dye, FluoZin-3 AM (Life Technologies, Grand Island, N.Y.). TR146 cells were grown in 15 ml growth medium [high glucose DMEM (Dulbecco's Modification of Eagle's Medium) supplemented with 10% FBS (fetal bovine serum), 100 units/ml penicillin and 100 μg/ml streptomycin in a 75 cm^2 flask for 3 days at 37° C. in a mammalian cell culture incubator set at 5% CO2. Cells were detached with addition of 10 ml of PBS (phosphate buffered saline) and gentle hand shaking, and transferred to a 50 ml tube and centrifuged at 850 rpm for 3 minutes to remove PBS. […] FluoZin-3 AM is a fluorescent dye used for quantifying intracellular Zn concentrations in the 1 to 100 nM to range. […] The pelleted cells were re-suspended in 10 ml assay buffer and 90 μl aliquots (˜50,000 cells) per well delivered to a 96-well assay plate and the plate is placed into a fluorometric imaging plate reader (FLIPR384 from Molecular Devices, Sunnyvale, Calif.) and basal fluorescence recorded (excitation wave length 494 nm and emission wave length 516 nm). Then Zn salt (for example Zn-lactate) was added and the increase in fluorescence was recorded for 5 minutes. […]

For data set [4] the following is noted: read-out: Affinity Kd (Zn^2+); cited from earlier work.
Data set [5] relates to TR146 cells. The data set can be described thus: Screening of Zn indicators by Zn uptake into TR146 cells (FLIPR). It is filed as cell-based. To be noted: Zn indicators screened using TR146 cells. How it is done:
As with most metal ions, the choice of indicator is dependent on the cell type, ion channel, and metal specificity.
as §2, with “To screen the Zn indicators, measurement of” for “Measurement of”, “of Zn-indicator,” for “of Zn dye,”, “grown to confluency” for “grown”, “CO2.” for “CO2. Cells were detached with addition of 10 ml of PBS (phosphate buffered saline) and gentle hand shaking, and transferred to a 50 ml tube and centrifuged at 850 rpm for 3 minutes to remove PBS.”, “plate was” for “plate is”

Data set [6] relates to TR146 cells. The data set can be described thus: Polyquats blocking Zn uptake into TR146 cells (FLIPR). Conditions: Control Zn lactate. The data set is classed as cell-based. On the procedure: as §1, with “TABLE 2. […]” for “TABLE 2.”
For data set [7], the system named is TR146 cells. The data set can be described thus: Bioavailability of Zn from formulated dentifrices and rinses, Zn uptake by TR146 cells (FLIPR). To be noted: 0.01% Dentifrices A-D tested on the TR146 cells; Zn Lactate Control = 100%. It is filed as cell-based. On the procedure:
as §2

Data set [8] deals with TR146 cells. Put plainly: Effects of cationic polymers and dentifrice binders on uptake of zinc lactate by TR146 cells. It is filed as cell-based. To be noted: 50 μM Zn Lactate alone (reference). An excerpt: After centrifugation, a pellet of cells was formed in the bottom of the tube separating them from the supernatant solution.
Setting [9] is: Zn salt concentration Saturated.

Marks after values point to notes of the source that are not given here.

`CC(=O)[O-].CC(=O)[O-].[Zn+2]` [ZnAcetate]: in data set [1] (Zn salt concentration 10 uM), the “Fluorescence Unit” value turned out to be 48547.79 and the “% of Zn Lactate Flux” value was 102.72%.
Take `O=P(O)(O)OP(=O)(O)OP(=O)(O)O` [Sodium tripolyphosphate]: in data set [2], the “5 micro M Chelant Control” value came out at 0.00%; the “50 micro M Chelant Control” value is 0.00%; the “Zn flux, 5 micro M Chelant + 5 micro M Zn lactate” value turned out to be 92.99%; the “Zn flux, 50 micro M Chelant + 50 micro M Zn lactate” value is on record as 0.00%. In addition, the “Zn flux, 50 micro M Chelant + 50 micro M Zn lactate” value in data set [2] (listed as sodium tripolyphosphate) is recorded as “did not allow for any measureable levels of Zn to be detected”.
Turning to `O=P([O-])(O)OP(=O)([O-])O.[Na+].[Na+]` [Sodium acid pyrophosphate], in data set [2], the “5 micro M Chelant Control” value is listed as 0.00%; the “50 micro M Chelant Control” value was found to be 0.00%; the “Zn flux, 5 micro M Chelant + 5 micro M Zn lactate” value stood at 82.87%; the “Zn flux, 50 micro M Chelant + 50 micro M Zn lactate” value turned out to be 0.00%. In addition, in data set [2] (listed as sodium acid pyrophosphate), the “Zn flux, 50 micro M Chelant + 50 micro M Zn lactate” value is recorded as “did not allow for any measureable levels of Zn to be detected”.
In the case of `[O-][n+]1ccccc1[S-].[O-][n+]1ccccc1[S-].[Zn+2]` [ZnPyrithione], in data set [1] (Zn salt concentration 10 mM), the “Fluorescence Unit” value is reported as 50467.87 and the “% of Zn Lactate Flux” value came out at 106.78%.
As to `[O-2].[Zn+2]` [ZnOxide], in data set [1] (setting [9]), the “Fluorescence Unit” value came out at 50391.21 and the “% of Zn Lactate Flux” value is 106.62%.
For `O=C([O-])C(=O)[O-].[Zn+2]` [ZnOxalate], in that order: 55389.93 and 117.2%.
With `[Cl-].[Cl-].[Zn+2]` [ZnCl2], in data set [1] (Zn salt concentration 1 mM), the “Fluorescence Unit” value is recorded as 47853.41 and the “% of Zn Lactate Flux” value was 101.25%. The “Zn Flux as a percentage of the Zn Chloride Control” value in data set [3] came to 100%.
For the compound `O=P(O)(O)O[C@H]1[C@H](OP(=O)(O)O)[C@@H](OP(=O)(O)O)[C@H](OP(=O)(O)O)[C@@H](OP(=O)(O)O)[C@H]1OP(=O)(O)O` [Phytic acid], in data set [2], the “5 micro M Chelant Control” value turned out to be 0.00%; the “50 micro M Chelant Control” value was 0.00%; the “Zn flux, 5 micro M Chelant + 5 micro M Zn lactate” value is 20.07%; the “Zn flux, 50 micro M Chelant + 50 micro M Zn lactate” value was found to be 33.87%.
For the compound `O=C([O-])CC(O)(CC(=O)[O-])C(=O)[O-].[Na+].[Na+].[Na+]` [Sodium citrate], in data set [2], the “5 micro M Chelant Control” value is 0.00%; the “50 micro M Chelant Control” value is given as 0.00%; the “Zn flux, 5 micro M Chelant + 5 micro M Zn lactate” value worked out at 104.83%; the “Zn flux, 50 micro M Chelant + 50 micro M Zn lactate” value was 43.63%.
As for `NCC(=O)[O-].NCC(=O)[O-].[Zn+2]` [ZnGlycinate], the “Fluorescence Unit” value in data set [1] (Zn salt concentration 4.40%) was 41086.61. Besides, the “% of Zn Lactate Flux” value in data set [1] (Zn salt concentration 4.40% (206 mM)) is 86.93%.
For `O=P1([O-])OP(=O)([O-])OP(=O)([O-])OP(=O)([O-])OP(=O)([O-])OP(=O)([O-])O1.[Na+].[Na+].[Na+].[Na+].[Na+].[Na+]` [Sodium Hexametaphosphate], in data set [2], the “50 micro M Chelant Control” value is listed as 0.00%; the “Zn flux, 5 micro M Chelant + 5 micro M Zn lactate” value came to 105.02%; the “Zn flux, 50 micro M Chelant + 50 micro M Zn lactate” value is on record as 63.81%*.
On to `O=C([O-])[C@H](O)[C@@H](O)[C@H](O)[C@H](O)CO.[Na+]` [Sodium D-gluconate], for which, in data set [2], the “5 micro M Chelant Control” value is reported as 1.51%; the “50 micro M Chelant Control” value was 0.00%; the “Zn flux, 5 micro M Chelant + 5 micro M Zn lactate” value was found to be 101.31%; the “Zn flux, 50 micro M Chelant + 50 micro M Zn lactate” value is on record as 112.99%.
Take `O=S(=O)([O-])[O-].[Zn+2]` [ZnSO4]: in data set [1] (Zn salt concentration 1 mM), the “Fluorescence Unit” value was 47853.41 and the “% of Zn Lactate Flux” value was determined as 101.25%.
For `O=P([O-])([O-])[O-].O=P([O-])([O-])[O-].[Zn+2].[Zn+2].[Zn+2]` [ZnPhosphate], in data set [1] (setting [9]), the “Fluorescence Unit” value was 49686.65 and the “% of Zn Lactate Flux” value was 105.13%.
For the compound `COc1ccc(N(CC(=O)O)CC(=O)O)c(OCCOc2cc(-c3c4cc(F)c(=O)cc-4oc4cc(O)c(F)cc34)ccc2NCC(=O)O)c1` [FluoZin-3], the Kd – broadly, the concentration at which binding is half-saturated – in data set [4] was 15 nM. Moreover, the “affinity for the flux of Zn into the TR146 cell line” value in data set [5] is reported as “most affinity for the flux of Zn into the TR146 cell line”.
In the case of `CC(O)C(=O)[O-].CC(O)C(=O)[O-].[Zn+2]` (centres unmarked) [Zn Lactate], in data set [6] (no quat), the “Fluorescent Counts with no Zn” value came to 24.5 and the “Fluorescent counts with Zn” value was 1774.8. Besides, in data set [6] (no quat (reference)), the “% Reduction compared to Zn control” value is 0%. The “Zn flux, Zn Only” value in data set [2] (No chelant, 50 micro M Zn Lactate) is reported as 100%*. Moreover, in data set [7], the “% of Zn Lactate Control (% Zn uptake by TR146 cells)” value is recorded as 100%. The “Fluorescence Units (percentage of zinc lactate)” value in data set [8] turned out to be 100%.
